Tests used:
Type in all cases: cell-based
[1] = target: T1, PTP1B binding to TM4SF5 (Homo sapiens, UniProt O14894); assay: Streptavidin pull-down of STrEP-TM4SF5 and immunoblot for PTP1B after TSAHC; conditions: stable SNU449 cells, TSAHC 20 μM for 24 h, immunoblot, Figure 3E
T1 construct: TM4SF5WT (NM-003963, 197 amino acids); expressed in transfected cells; host or cells: SNU449 cells stably expressing STrEP-TM4SF5
T1 sequence (O14894 1-197): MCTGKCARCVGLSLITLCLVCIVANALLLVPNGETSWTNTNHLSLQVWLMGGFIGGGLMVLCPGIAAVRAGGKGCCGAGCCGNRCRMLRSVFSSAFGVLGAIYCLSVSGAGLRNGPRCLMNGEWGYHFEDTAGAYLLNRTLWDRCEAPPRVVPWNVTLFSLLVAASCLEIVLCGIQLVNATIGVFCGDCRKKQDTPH
From the text: Co-immunoprecipitation: Whole cell extracts were precipitated with anti-FLAG antibody (Cell Signaling Technology) or […]-precoated beads (Sigma-Aldrich) in a cold room overnight prior to immunoblotting with the indicated antibodies. For co-immunoprecipitation of endogenous proteins, whole cell lysates of endogenous TM4SF5-expressing HepG2 cells were precipitated with either anti-TM4SF5 [27] or c-Src (sc-8056, clone H-12) antibody prior to immunoblotting for FAK, c-Src, and TM4SF5. Immunoprecipitated proteins were boiled in 2× SDS-PAGE sample buffer before undergoing western blotting using standard protocols. Quantification of band intensity was performed as described above.
(A and B) SNU449 cells transiently transfected with the c-Src SH321 construct together with the indicated constructs were harvested (A). SNU761 cells stably expressing mock or FLAG-TM4SF5 were transiently transfected with the indicated constructs were harvested (B). The whole cell lysates (WCL) were precipitated with streptavidin beads, prior to immunoblotting. […] Quantitative comparison ratios were calculated from the blots by measurement of band intensities using Image J and normalization of them to those of loading controls. […]

[2] = target: T2, TM4SF5 (Homo sapiens, UniProt O14894); assay: Immunofluorescence of TM4SF5 localization after TSAHC; conditions: TM4SF5-Flag cells, TSAHC 20 μM for 24 h, Figure 3E
T2 construct: TM4SF5WT (NM-003963, 197 amino acids); expressed in transfected cells
T2 sequence (O14894 1-197): T1 sequence (O14894 1-197)
Method: Indirect immunofluorescence: Cells maintained under normal culture conditions on glass coverslips were treated with peptides for 1 day in the absence or presence of 10 μM TSAHC, a specific TM4SF5 inhibitor [29]. The cells were incubated with either PBS (non-permeabilized) or 0.5% Triton X-100 in PBS (permeabilized) for 5 min at RT and then stained using an antibody against TAT (1:100 dilution, Cell Applications, Inc., San Diego, CA, USA). Cells treated with the CPPs were also fixed with 4% formaldehyde for 10 min at RT, incubated with 30 mM glycine for 30 min, permeabilized as described above, and then stained with antibodies against pY397FAK (Cat #: 611723, BD Transduction Laboratories, 1:500 dilution) or pY861FAK (sc-16663-R, Santa Cruz Biotechnology, 1:500 dilution). Phalloidin was also used to stain for F-actin. Immunofluorescent images were acquired on a confocal (Nikon eclipse Ti; Nikon, Melville, NY, USA) or a fluorescent microscope (BX51, Olympus, Japan).
(A and B) SNU449 cells transiently transfected with the c-Src SH321 construct together with the indicated constructs were harvested (A). […] Quantitative comparison ratios were calculated from the blots by measurement of band intensities using Image J and normalization of them to those of loading controls. […]

[3] = target: T3, TM4SF5 binding to c-Src (Homo sapiens, UniProt O14894); assay: TM4SF5 binding to c-Src after TSAHC treatment; conditions: treatment of TSAHC, stated in the discussion
T3 construct: TM4SF5WT (NM-003963, 197 amino acids); expressed in transfected cells
T3 sequence (O14894 1-197): T1 sequence (O14894 1-197)
From the text: (A and B) SNU449 cells transiently transfected with the c-Src SH321 construct together with the indicated constructs were harvested (A). SNU761 cells stably expressing mock or FLAG-TM4SF5 were transiently transfected with the indicated constructs were harvested (B). The whole cell lysates (WCL) were precipitated with streptavidin beads, prior to immunoblotting. (C) SNU761 cells stably expressing mock or FLAG-TM4SF5WT (WT) were transiently transfected with the indicated construct and siRNAs against a scrambled sequence (siCont) or a sequence in PTP1B (siPTP1B). Immunoprecipitation from the WCL using anti-Flag-precoated sepharose beads was performed, before immunoblots. (D) SNU449 cells transfected with the indicated plasmids were processed for precipitation using streptavidin beads, prior to immunoblotting. (E) Stable SNU449 cells were treated with DMSO (-) or TSAHC (20 μM, +) for 24 h, before harvest, precipitation using streptavidin beads, and immunoblotting. Another cell set with TM4SF5-Flag and treated with DMSO or TSAHC as above was processed for immunofluorescence analysis. (F) SNU761 cells stably expressing TM4SF5WT were transiently transfected with the indicated siRNAs for 48 h, prior to transwell migration assay. […] Quantitative comparison ratios were calculated from the blots by measurement of band intensities using Image J and normalization of them to those of loading controls. […]

- PTP1B binding to TM4SF5 [1]: reduced substantially
- TM4SF5 binding to c-Src [3]: impaired TM4SF5 binding to c-Src
Structure (SMILES): Cc1ccc(S(=O)(=O)Nc2ccc(C(=O)C=Cc3ccc(O)cc3)cc2)cc1 [TSAHC, 4-(p-toluenesulfonylamido)-4-hydroxychalcone]
- membrane localization of TM4SF5 [2]: still showed membrane localization of TM4SF5
